For series [1], the target named is T1, EcoLRS (leucyl-tRNA synthetase from Escherichia coli) (Escherichia coli, UniProt P07813).
T1 construct: made in house; host or cells: Escherichia coli M15
The experiment in a line: aaRS aminoacylation assay (ATP consumption), EcoLRS. The class given is biochemical. The method, then:
(§1) The compounds have been tested for antibacterial activity in vitro as aminoacyl-tRNA synthetases (aaRS) inhibitors following the following process.
(§2) Leucyl-, valyl- and isoleucyl-tRNA synthetases (LRS, VRS and IRS, respectively) from Escherichia coli (Eco) and Staphylococcus aureus (Sau).
(§3) Escherichia coli M15 cells transformed with plasmid pQE-60, or pQE-70, containing the open-reading frame sequence of one targeted aaRS were induced with 1 mM IPTG (Isopropyl β-D-1-thiogalactopyranoside) for 3 h at 37° C. Bacterial cells were harvested and lysed with 20 mM NaH2PO4 (pH 8.0), 200 mM NaCl, 10 mM imidazole and protease inhibitor cocktail (Roche). Pathogenic aaRS was purified by nickel affinity standard chromatography. Protein concentration was determined by spectrophotometry.
(§4) tRNA^Leu, tRNA^Val and tRNA^Ile from E. coli and S. aureus were transcribed in vitro for 4 h at 37° C. using T7 RNA polymerase. Transcription reaction contained 40 mM Tris-HCl (pH 8.0), 22 mM MgCl2, 1 mM spermidine, 5 mM DTT, 0.01% Triton X-100, 4 mM GTP, 4 mM ATP, 4 mM UTP, 4 mM CTP, 16 mM GMP, […] T7 RNA polymerase and 150 μg BstNI digested plasmid. Once finished, the reaction was applied on a 6% polyacrylamide-8 M urea denaturing gel to purify the transcribed tRNA and discard any impurities. Purified tRNA was quantified with Nanodrop 2000 (Thermo Scientific).
(§5) The aminoacylation reaction catalyzed by aminoacyl-tRNA synthetases (aaRS) takes place in two steps. In the first step, aaRS activates its cognate amino acid with ATP; and in the second step the activated amino acid is loaded to its corresponding tRNA. This reaction can be summarized as follows: ARS+aa+ATP=ARS-aa-AMP+PPi ARS-aa-AMP+tRNA=aa-tRNA+AMP+ARS [2] (ARS, Aminoacyl-tRNA synthetase; aa, amino acid; ARS-aa-AMP, enzyme-bound to aminoacyl-adenylate; aa-tRNA, aminoacyl-tRNA).
(§6) The activity of the pathogenic aaRSs was monitored by measuring the ATP consumption rate, since this consumption is directly proportional to the activity of the aaRS. If the tested compound, at a single point concentration of 50 μM, is inhibiting the aminoacylation reaction, there is a decrease in the ATP consumption, compared to the control reaction without compound, allowing the calculation of an inhibition ratio.
(§7) When the inhibition ratio for a given compound was above 80%, IC50 determination was performed with the same enzymatic assay (using the commercial kit Kinase RR from BioThema AB, Sweden) in the presence of serial dilutions of inhibitor. Known inhibitors of LRS, VRS or IRS were used as a positive control of the assay. The IC50 was calculated based on nonlinear regression analysis.

The target in series [2] is T2, EcoIRS (isoleucyl-tRNA synthetase from Escherichia coli) (Escherichia coli, UniProt P00956).
T2 construct: made in house; host or cells: Escherichia coli M15
T2 sequence (P00956 whole entry): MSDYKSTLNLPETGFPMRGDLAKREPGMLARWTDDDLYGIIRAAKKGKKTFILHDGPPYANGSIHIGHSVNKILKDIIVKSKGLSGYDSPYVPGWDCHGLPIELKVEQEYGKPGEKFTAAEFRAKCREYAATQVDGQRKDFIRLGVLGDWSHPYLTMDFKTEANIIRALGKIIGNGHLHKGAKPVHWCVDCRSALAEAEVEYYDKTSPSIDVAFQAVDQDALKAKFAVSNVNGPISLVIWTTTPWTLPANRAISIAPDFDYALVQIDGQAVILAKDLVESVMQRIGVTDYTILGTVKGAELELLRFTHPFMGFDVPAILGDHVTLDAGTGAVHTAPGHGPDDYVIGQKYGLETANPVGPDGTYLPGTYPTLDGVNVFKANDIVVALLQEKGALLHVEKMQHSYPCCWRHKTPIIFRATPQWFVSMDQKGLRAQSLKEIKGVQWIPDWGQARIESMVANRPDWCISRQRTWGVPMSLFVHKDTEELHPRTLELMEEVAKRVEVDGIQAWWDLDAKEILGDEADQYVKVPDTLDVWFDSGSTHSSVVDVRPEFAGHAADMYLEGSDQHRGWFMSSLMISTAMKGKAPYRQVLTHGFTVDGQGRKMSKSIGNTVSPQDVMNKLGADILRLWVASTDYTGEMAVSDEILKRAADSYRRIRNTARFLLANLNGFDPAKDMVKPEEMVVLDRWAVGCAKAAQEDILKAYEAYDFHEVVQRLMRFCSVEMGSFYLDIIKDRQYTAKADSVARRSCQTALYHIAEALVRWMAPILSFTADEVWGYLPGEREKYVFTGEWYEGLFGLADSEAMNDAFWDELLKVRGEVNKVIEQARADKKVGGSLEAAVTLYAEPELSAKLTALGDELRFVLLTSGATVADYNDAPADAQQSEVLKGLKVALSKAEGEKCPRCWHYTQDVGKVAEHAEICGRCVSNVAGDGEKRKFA
Description: aaRS aminoacylation assay (ATP consumption), EcoIRS. The note with it: i.a. = inactive at a concentration below 50 uM. The class given is biochemical. The method, then:
as §1, §2, §3, §4, §5, §6, §7

Series [3] has as its target T3, SauLRS (leucyl-tRNA synthetase from Staphylococcus aureus) (Staphylococcus aureus, UniProt Q2FXH2).
T3 construct: made in house; host or cells: Escherichia coli M15
T3 sequence (Q2FXH2 1-805): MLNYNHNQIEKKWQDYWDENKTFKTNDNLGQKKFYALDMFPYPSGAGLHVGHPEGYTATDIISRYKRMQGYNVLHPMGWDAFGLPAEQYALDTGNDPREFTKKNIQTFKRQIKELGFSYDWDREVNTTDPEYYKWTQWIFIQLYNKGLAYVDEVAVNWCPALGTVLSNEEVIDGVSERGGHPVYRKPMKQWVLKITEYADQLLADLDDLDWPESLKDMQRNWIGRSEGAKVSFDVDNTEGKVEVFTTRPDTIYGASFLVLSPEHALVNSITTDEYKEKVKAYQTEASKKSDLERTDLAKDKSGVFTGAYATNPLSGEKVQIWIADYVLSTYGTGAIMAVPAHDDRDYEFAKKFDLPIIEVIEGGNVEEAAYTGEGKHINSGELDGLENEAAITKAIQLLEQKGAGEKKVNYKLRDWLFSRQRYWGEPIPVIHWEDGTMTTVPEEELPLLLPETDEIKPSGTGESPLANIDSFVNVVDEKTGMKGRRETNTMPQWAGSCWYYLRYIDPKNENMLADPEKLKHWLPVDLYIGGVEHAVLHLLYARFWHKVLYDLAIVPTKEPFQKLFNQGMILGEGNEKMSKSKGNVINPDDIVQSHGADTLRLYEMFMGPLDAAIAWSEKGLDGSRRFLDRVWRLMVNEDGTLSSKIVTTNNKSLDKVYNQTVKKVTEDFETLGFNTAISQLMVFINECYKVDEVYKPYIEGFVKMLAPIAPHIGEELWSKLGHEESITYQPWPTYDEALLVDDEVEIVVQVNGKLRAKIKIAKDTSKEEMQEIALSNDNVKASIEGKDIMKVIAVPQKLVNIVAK
The experiment in a line: aaRS aminoacylation assay (ATP consumption), SauLRS. The class given is biochemical. The note with it: i.a. = inactive at a concentration below 50 uM; for IC50: read-out: IC50 SauLRS. The method, then: as §1, §2, §3, §4, §5, §6, §7

The mark [4] stands for this setting: i.a. = inactive at a concentration below 50 uM, read-out: IC50 EcoLRS.
The mark [5] stands for this setting: i.a. = inactive at a concentration below 50 uM.

These results are taken from patent publication US11072581B2, “N-acyl-arylsulfonamide derivatives as aminoacyl-tRNA synthetase inhibitors” (Oxford Drug Design Limited, priority 2015, dated 2021).

Where two headings read alike, the source gives them in different places.

T1 sequence (P07813 whole entry): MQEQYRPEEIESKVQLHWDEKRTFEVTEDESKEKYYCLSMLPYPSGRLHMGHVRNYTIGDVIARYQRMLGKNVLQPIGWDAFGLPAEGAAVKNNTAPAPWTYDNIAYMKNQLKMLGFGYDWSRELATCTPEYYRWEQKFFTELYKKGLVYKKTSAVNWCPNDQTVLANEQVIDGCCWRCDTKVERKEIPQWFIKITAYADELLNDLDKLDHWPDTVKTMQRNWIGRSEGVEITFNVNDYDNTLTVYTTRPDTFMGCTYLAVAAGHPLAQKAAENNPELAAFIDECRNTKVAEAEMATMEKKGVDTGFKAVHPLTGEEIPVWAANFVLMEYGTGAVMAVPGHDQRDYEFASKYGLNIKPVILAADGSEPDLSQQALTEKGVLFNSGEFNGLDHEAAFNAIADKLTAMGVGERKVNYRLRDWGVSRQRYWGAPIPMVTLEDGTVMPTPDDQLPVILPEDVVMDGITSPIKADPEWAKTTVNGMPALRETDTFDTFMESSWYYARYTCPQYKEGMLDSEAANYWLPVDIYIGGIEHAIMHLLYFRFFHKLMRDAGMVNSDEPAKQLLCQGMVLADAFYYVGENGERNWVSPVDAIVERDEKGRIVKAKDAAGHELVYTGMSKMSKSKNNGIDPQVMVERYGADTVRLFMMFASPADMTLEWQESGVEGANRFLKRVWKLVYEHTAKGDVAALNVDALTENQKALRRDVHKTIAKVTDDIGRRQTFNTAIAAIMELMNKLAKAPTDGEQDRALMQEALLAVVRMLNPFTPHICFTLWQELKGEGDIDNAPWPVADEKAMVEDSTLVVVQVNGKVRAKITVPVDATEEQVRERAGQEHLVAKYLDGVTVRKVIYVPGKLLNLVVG

The term IC50 denotes the concentration that inhibits the measured activity by half. In general, melting point refers to the temperature, or range, at which the solid turns liquid. Turning to `N[C@@H](CC1CC1)C(=O)NS(=O)(=O)c1cccc(-c2ccccc2)c1` (racemic) [Compound 5.10], the melting point was 214.4 °C. Besides, in series [1], the IC50 was 47600 nM. The “IC50 EcoIRS” value in series [2] is reported as “i.a”. In series [3], the “IC50 SauLRS” value is “i.a”.
`CC(C)C[C@H](N)C(=O)NS(=O)(=O)c1ccc(Oc2ccccc2)cc1` [Compound 5.2]: the melting point fell in the range of 224 to 225 °C. Also, in series [1], the IC50 was 713 nM. For the same molecule, the “IC50 EcoIRS” value in series [2] is listed as “i.a”. Besides, the concentration for half-maximal inhibition (IC50) in series [3] was 16300 nM.
For the molecule `CC(C)C[C@H](N)C(=O)NS(=O)(=O)c1ccccc1-c1ccccc1` [Compound 5.3], the melting point is 143 °C (dec.). In series [1], this molecule registered an IC50 of 159 nM. Moreover, the “IC50 EcoIRS” value in series [2] is recorded as “i.a”. Moreover, the IC50 in series [3] was 14800 nM.
`CC(C)C[C@H](N)C(=O)NS(=O)(=O)c1cccc(-c2ccccc2)c1` [Compound 5.9]: the melting point was 149 °C (dec.). Further, the IC50 in series [1] (setting [4]) was 32 nM. Moreover, the “IC50 EcoIRS” value in series [2] was “i.a”. Moreover, the IC50 in series [3] was found to be 650 nM.
For `CC(C)C[C@H](N)C(=O)NS(=O)(=O)c1ccc(-c2ccccc2)cc1` [Compound 5.11], the melting point was 212 °C (dec.). Further, in series [1], inhibition was half-maximal at 27600 nM (IC50). Also, the “IC50 EcoIRS” value in series [2] was “i.a”. In addition, the IC50 in series [3] was determined as 11300 nM.
`CC(C)C[C@H](N)C(=O)NS(=O)(=O)c1c(C(C)C)cc(C(C)C)cc1C(C)C` [Compound 5.12]: the melting point is 217 °C. For the same molecule, half-maximal inhibition in series [1] (IC50) was put at 32700 nM. Also, in series [2], the “IC50 EcoIRS” value was “i.a”. In series [3], the “IC50 SauLRS” value is listed as “i.a”.
Turning to `CC(C)C[C@H](N)C(=O)NS(=O)(=O)c1ccc2ccccc2c1` [Compound 5.14], the melting point is 215 °C (dec.). The IC50 in series [1] (setting [4]) is 65 nM. In series [2], the “IC50 EcoIRS” value is on record as “i.a”. Besides, the IC50 in series [3] was found to be 1000 nM.
Take `CC[C@H](C)[C@H](N)C(=O)NS(=O)(=O)c1ccc2ccccc2c1` [Compound 5.15]: the melting point came to 229.7 °C. The “IC50 EcoLRS” value in series [1] (setting [5]) was “i.a”. For the same molecule, the “IC50 EcoIRS” value in series [2] was “i.a”. For the same molecule, in series [3], the “IC50 SauLRS” value is on record as “i.a”.
For the molecule `COc1ccc2cc(S(=O)(=O)NC(=O)[C@@H](N)CC(C)C)ccc2c1` [Compound 5.17], the melting point is 230 to 232 °C. Besides, the IC50 in series [1] turned out to be 920 nM. Moreover, in series [2], the “IC50 EcoIRS” value is given as “i.a”. Further, the IC50 in series [3] turned out to be 2000 nM.
The corresponding values for `CC(C)C[C@H](N)C(=O)NS(=O)(=O)c1cccc2ccncc12` [Compound 5.21] are 55 to 57 °C, 483 nM, “i.a” and 3420 nM.
In the case of `CC(C)C[C@H](N)C(=O)NS(=O)(=O)c1cccc2c1OCCC2` [Compound 5.25], the melting point is 165 °C (dec.). The molecule also returned an IC50 in series [1] of 149 nM. The “IC50 EcoIRS” value in series [2] is listed as “i.a”. Also, the IC50 in series [3] was determined as 14100 nM.
Regarding `CNc1cc(-c2cccc(S(=O)(=O)NC(=O)[C@@H](N)CC(C)C)c2)nc(N)n1` [Compound 5.27], the IC50 was found to be 51 nM in series [1] and 260 nM in series [3]. Further, the “IC50 EcoIRS” value in series [2] was “i.a”.
The corresponding values for `CC(C)C[C@H](N)C(=O)NS(=O)(=O)c1cccc(-c2cc(N(C)C)nc(N)n2)c1` [Compound 5.28] are 1600 nM, 4800 nM and “i.a”.
With `CSc1cc(-c2cccc(S(=O)(=O)NC(=O)[C@@H](N)CC(C)C)c2)nc(N)n1` [Compound 5.29], the IC50 was 21 nM in series [1] and 1200 nM in series [3]. Moreover, in series [2], the “IC50 EcoIRS” value was “i.a”.
For the molecule `Cc1cc(-c2cccc(S(=O)(=O)NC(=O)[C@@H](N)CC3CC3)c2)nc(N)n1` [Compound 5.30], the melting point is > 192 °C (dec.). In series [1], this molecule returned an IC50 of 14000 nM. Besides, the “IC50 EcoIRS” value in series [2] was “i.a”. Also, the “IC50 SauLRS” value in series [3] was “i.a”.
`Cc1cc(-c2cccc(S(=O)(=O)NC(=O)[C@@H](N)CC3CCC3)c2)nc(N)n1` [Compound 5.31] showed an IC50 in series [1] of 6200 nM. Further, the “IC50 EcoIRS” value in series [2] was “i.a”. Further, in series [3], the “IC50 SauLRS” value is “i.a”.
Take `Cc1cc(-c2cccc(S(=O)(=O)NC(=O)[C@@H](N)C3CC3)c2)nc(N)n1` [Compound 5.33]: the melting point was 158 °C (dec.). Moreover, the “% at single point concentration (inhibition ratio), EcoLRS” value in series [1] (@50 μM compound) turned out to be 40%@50. In addition, the “IC50 EcoIRS” value in series [2] is listed as “i.a”. For the same molecule, the “IC50 SauLRS” value in series [3] is recorded as “i.a”.
Consider `Cc1cc(-c2cccc(S(=O)(=O)NC(=O)[C@@H](N)CC3CCCCC3)c2)nc(N)n1` [Compound 5.34], for which the “IC50 EcoLRS” value in series [1] (setting [5]) is recorded as “i.a”. For the same molecule, in series [2], the “IC50 EcoIRS” value is recorded as “i.a”. Besides, the “IC50 SauLRS” value in series [3] was “i.a”.
